The values below come from patent publication US8703195B2, “Method for solubilising, dispersing and stabilising of substances, products manufactured according to the method as well as the use thereof” (Biorem AG, priority 2006, dated 2014).

Like-named read-outs stand apart in the source and are kept apart here.

The conditions of series [1]: pH 5; cited from earlier work.
The conditions of series [2]: cited from earlier work.
The conditions of series [3]: unformulated active agent, in practice; cited from earlier work.
Series [4] is described as follows: Bioavailability of coenzyme Q10. The settings on record: oral administration, solubilised with poloxamer and resin or tocopherol by this method. The series is classed as in vivo.
The conditions of series [5]: dissolved in water; cited from earlier work.

What is called bioavailability is dose-corrected exposure relative to a reference, in per cent.

Consider Abamectin, for which the “stability against hydrolysis in aqueous solutions” value in series [1] was “stable”. Consider `COC1=C(OC)C(=O)C(C/C=C(\C)CC/C=C(\C)CC/C=C(\C)CC/C=C(\C)CC/C=C(\C)CC/C=C(\C)CC/C=C(\C)CC/C=C(\C)CC/C=C(\C)CCC=C(C)C)=C(C)C1=O` [coenzyme Q10], for which the “solubility in water” value in series [2] is given as “not water-soluble”. The bioavailability in series [3] is given as 10%; in series [4] it was “about 85%”. In the case of `O=C1O[C@H]([C@@H](O)CO)C(O)=C1O` [Vitamin C, ascorbic acid], in series [5], the “time until solution in water becomes light yellow” value is on record as 2 to 3 days.
